{
  "source": "the supplement of paper PMC10307832",
  "experiment_in_all_cases": "relative viability (nuclei count vs DMSO), 5 days (fraction); higher = more cells survive",
  "key": {"[1]": {"compound": "C[C@@H](N)c1ccc(C(=O)Nc2ccnc3[nH]ccc23)cc1 + CC(=O)c1c(C)c2cnc(Nc3ccc(N4CCNCC4)cn3)nc2n(C2CCCC2)c1=O [Palbociclib] (partner 0.5 µM)", "summary_of_the_method": "(§1)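 Cells from lung cancer lines were seeded into 1536-well plates and, one day later, dosed by pin tool. Treatments were either a single drug or a fixed dose of an anchor drug with five library-drug doses (not always all listed) in √10 steps. After 5 days, nuclei were stained in a one-step fixation (final 0.05% Triton X-100, 1% formaldehyde, 1 ug/ml Hoechst) and counted on 4× images, and relative viability is the treated-to-vehicle nuclei ratio, as the median of duplicate plates.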"}, "[2]": {"compound": "C[C@@H](N)c1ccc(C(=O)Nc2ccnc3[nH]ccc23)cc1 + COc1cccc2cc(-c3nc([C@H]4CC[C@H](C(=O)O)CC4)n4ncnc(N)c34)[nH]c12 [OSI-027] (partner 0.5 µM)", "summary_of_the_method": "as §1"}, "[3]": {"compound": "C1CNCCC1C2=CC(=NN2)C3=CC=NC=C3 + Nc1ncn([C@H]2C[C@H](O)[C@@H](CO)O2)c(=O)n1 [Decitabine] (partner 2 µM)", "summary_of_the_method": "as §1"}, "[4]": {"compound": "O[C@H]1CC[C@H](Nc2ncc3nc(Nc4c(F)cc(F)cc4F)n([C@H]4CCOC4)c3n2)CC1 [Tanzisertib] + O=C(c1cc(Cc2n[nH]c(=O)c3ccccc23)ccc1F)N1CCN(C(=O)C2CC2)CC1 [Olaparib] (partner 8 µM)", "summary_of_the_method": "as §1"}},
  "data": [
    {"cell line": "UMC-11", "values": [
      {"measurement": "relative viability", "setting": "[1]; first compound 0.1265 µM", "value": 0.334},
      {"measurement": "relative viability", "setting": "[1]; first compound 0.4 µM", "value": 0.306},
      {"measurement": "relative viability", "setting": "[1]; first compound 1.265 µM", "value": 0.29},
      {"measurement": "relative viability", "setting": "[1]; first compound 4 µM", "value": 0.318},
      {"measurement": "relative viability", "setting": "[2]; first compound 0.04 µM", "value": 0.583},
      {"measurement": "relative viability", "setting": "[2]; first compound 0.1265 µM", "value": 0.565},
      {"measurement": "relative viability", "setting": "[2]; first compound 0.4 µM", "value": 0.555},
      {"measurement": "relative viability", "setting": "[2]; first compound 1.265 µM", "value": 0.453},
      {"measurement": "relative viability", "setting": "[2]; first compound 4 µM", "value": 0.459},
      {"measurement": "relative viability", "setting": "[3]; first compound 0.08 µM", "value": 0.4},
      {"measurement": "relative viability", "setting": "[3]; first compound 0.8 µM", "value": 0.629},
      {"measurement": "relative viability", "setting": "[3]; first compound 2.53 µM", "value": 0.697},
      {"measurement": "relative viability", "setting": "[3]; first compound 8 µM", "value": 0.808},
      {"measurement": "relative viability", "setting": "[4]; first compound 0.08 µM", "value": 0.355},
      {"measurement": "relative viability", "setting": "[4]; first compound 0.253 µM", "value": 0.412},
      {"measurement": "relative viability", "setting": "[4]; first compound 0.8 µM", "value": 0.411},
      {"measurement": "relative viability", "setting": "[4]; first compound 2.53 µM", "value": 0.501},
      {"measurement": "relative viability", "setting": "[4]; first compound 8 µM", "value": 0.388}
    ]}
  ]
}
